Measured values reported in US11117883B2 (Ariad Pharmaceuticals, Inc., priority 2016, dated 2021).

How the values were obtained:
Assay in all cases: c-Kit assay: Ba/F3 KIT mutant viability (Cell Titer-Glo, 72 hours)
Assay type in all cases: cell-based
BAF3 FL KIT EX11DEL = target: T1, BAF3 FL KIT EX11DEL (Homo sapiens, UniProt P10721, cells depend on it, form not given); details: viability after 72 hours
T1 construct: "BAF3 FL KIT EX11DEL"
Method: (§1) KIT cDNAs were synthesized by GenScript and cloned into the pLVX-IRES-Puro vector (Clontech). Viral particles were produced by transfecting pLVX-IRES-puro vectors containing KIT mutant genes into HEK293 cells (Invitrogen) using the Trans-Lentiviral ORF Packaging Kit (Thermo Scientific). 48 hours post-transfection, virus-containing supernatants were harvested and incubated for another 48-72 hours with parental Ba/F3 cells (DSMZ) in the presence of 10 ng/mL […] (R&D Systems). Transduced Ba/F3 cells were then selected by IL-3 withdrawal and puromycin (0.5-1 μg/mL, Invitrogen).
(§2) Cell lines (i.e., EX11DEL, EX11DEL/D816H, EX11DEL/T670I, and EX11DEL/V654A) were plated into 384 well plates using RPMI 1640 supplemented with 10% FBS at densities that produced linear growth and incubated at 37° C. in 5% (v/v) CO2. Cells were treated with eight concentrations of compound over a 4-fold dilution (10 μM to 0.61 nM) and viability was assessed using Cell Titer-Glo assay (Promega) after 72 hours. Data were plotted as percent viability relative to vehicle-treated cells. Dose-responses curves were generated and used to calculate IC50 values.

[1] = target: T2, BAF3 FL KIT EX11DEL/D816H (Homo sapiens, UniProt P10721, D816H, cells depend on it, form not given); details: viability after 72 hours
T2 construct: "BAF3 FL KIT EX11DEL/ D816H"
Method: as §1, §2

[2] = target: T3, BAF3 FL KIT EX11DEL/T6701 (Homo sapiens, UniProt P10721, T670I, cells depend on it, form not given); details: EX11DEL/T6701, viability after 72 hours
T3 construct: "BAF3 FL KIT EX11DEL/ T6701"
Method: as §1, §2

[3] = target: T4, BAF3 FL KIT EX11DEL/V654A (Homo sapiens, UniProt P10721, V654A, cells depend on it, form not given); details: viability after 72 hours
T4 construct: "BAF3 FL KIT EX11DEL/ V654A"
Method: as §1, §2

T3 sequence (P10721 with tags, fused parts or gaps DEL557-558/T670I, form open): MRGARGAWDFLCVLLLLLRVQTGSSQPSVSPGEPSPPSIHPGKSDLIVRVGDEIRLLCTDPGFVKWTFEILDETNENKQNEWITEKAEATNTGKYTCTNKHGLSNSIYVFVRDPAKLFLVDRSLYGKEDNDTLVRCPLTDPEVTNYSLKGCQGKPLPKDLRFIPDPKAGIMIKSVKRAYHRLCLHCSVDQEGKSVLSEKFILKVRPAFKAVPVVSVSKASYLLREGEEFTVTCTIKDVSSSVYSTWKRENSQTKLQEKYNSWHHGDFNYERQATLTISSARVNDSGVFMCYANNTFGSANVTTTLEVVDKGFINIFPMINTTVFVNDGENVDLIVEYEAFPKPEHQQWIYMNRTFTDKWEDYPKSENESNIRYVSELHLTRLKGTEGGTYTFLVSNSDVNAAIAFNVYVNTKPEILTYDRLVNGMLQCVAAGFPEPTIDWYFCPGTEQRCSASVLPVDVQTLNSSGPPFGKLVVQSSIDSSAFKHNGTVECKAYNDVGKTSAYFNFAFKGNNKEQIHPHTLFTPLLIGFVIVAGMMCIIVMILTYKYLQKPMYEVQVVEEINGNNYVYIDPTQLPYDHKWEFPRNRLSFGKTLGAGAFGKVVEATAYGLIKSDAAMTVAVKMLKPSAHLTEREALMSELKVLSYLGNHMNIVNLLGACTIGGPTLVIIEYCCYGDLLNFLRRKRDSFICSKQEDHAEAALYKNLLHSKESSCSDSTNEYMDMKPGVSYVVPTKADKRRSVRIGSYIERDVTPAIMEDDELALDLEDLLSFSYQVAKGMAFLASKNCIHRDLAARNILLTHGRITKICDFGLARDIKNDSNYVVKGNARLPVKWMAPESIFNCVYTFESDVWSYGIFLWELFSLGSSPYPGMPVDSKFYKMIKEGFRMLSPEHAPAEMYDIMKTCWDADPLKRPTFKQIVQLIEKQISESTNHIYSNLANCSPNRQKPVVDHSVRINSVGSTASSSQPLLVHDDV
T1 sequence (P10721 with tags, fused parts or gaps DEL557-558): as the sequence (P10721 with tags, fused parts or gaps DEL557-558/T670I, form open) above, with I668T counted along it
T4 sequence (P10721 with tags, fused parts or gaps DEL557-558/V654A, form open): as the sequence (P10721 with tags, fused parts or gaps DEL557-558/T670I, form open) above, with V652A, I668T counted along it
T2 sequence (P10721 with tags, fused parts or gaps DEL557-558/D816H, form open): as the sequence (P10721 with tags, fused parts or gaps DEL557-558/T670I, form open) above, with I668T, D814H counted along it

Row | Structure (SMILES) | GI50 (BAF3 FL KIT EX11DEL) [nM] | GI50 [1] [nM] | GI50 [2] [nM] | GI50 [3] [nM]
1 | Cc1ccc(C(=O)Nc2cc(C(F)(F)F)ccn2)cc1C#Cc1ccc2c(c1)ncn2-c1ccc(N2CCN(C)CC2)cc1 [Compound I-15, 4-methyl-3-((1-(4-(4-methylpiperazin-1-yl)phenyl)-1H-benzo[d]imidazol-5-yl)ethynyl)-N-(4-(trifluoromethyl)pyridin-2-yl)benzamide] | 50 to 100 | 100 to 10000 | 100 to 10000 | 100 to 10000
2 | Cc1ccc(C(=O)Nc2cc(C(F)(F)F)ccn2)cc1C#Cc1ccc2c(c1)ncn2Cc1cccnc1 [Compound I-12, 4-methyl-3-((1-(pyridin-3-ylmethyl)-1H-benzo[d]imidazol-5-yl)ethynyl)-N-(4-(trifluoromethyl)pyridin-2-yl)benzamide] | 10 to 50 | 100 to 10000 | 100 to 10000 | 100 to 10000
3 | Cc1ccc(C(=O)Nc2cc(C(F)(F)F)ccn2)cc1C#Cc1ccc2c(c1)ncn2C1CC1 [Compound I-13, 3-((1-cyclopropyl-1H-benzo[d]imidazol-5-yl)ethynyl)-4-methyl-N-(4-(trifluoromethyl)pyridin-2-yl)benzamide] | 10 to 50 | 100 to 10000 | 100 to 10000 | 100 to 10000
4 | COCCn1cc(-n2cnc3cc(C#Cc4cc(NC(=O)c5cc(C(F)(F)F)ccn5)ccc4C)ccc32)cn1 [Compound I-38, N-(3-((1-(1-(2-methoxyethyl)-1H-pyrazol-4-yl)-1H-benzo[d]imidazol-5-yl)ethynyl)-4-methylphenyl)-4-(trifluoromethyl)picolinamide] | < 10 | 50 to 100 | 10 to 50 | 10 to 50
5 | Cc1ccc(NC(=O)c2cc(C(F)(F)F)ccn2)cc1C#Cc1ccc2c(c1)ncn2-c1cn(C)nn1 [Compound I-36, N-(4-methyl-3-((1-(1-methyl-1H-1,2,3-triazol-4-yl)-1H-benzo[d]imidazol-5-yl)ethynyl)phenyl)-4-(trifluoromethyl)picolinamide] | < 10 | 10 to 50 | 10 to 50 | 10 to 50
6 | Cc1ccc(C(=O)Nc2cc(C(F)(F)F)ccn2)cc1C#Cc1ccc2c(c1)ncn2-c1cnn(C2CCN(C=O)CC2)c1 [Compound I-25, 3-((1-(1-(1-formylpiperidin-4-yl)-1H-pyrazol-4-yl)-1H-benzo[d]imidazol-5-yl)ethynyl)-4-methyl-N-(4-(trifluoromethyl)pyridin-2-yl)benzamide] | < 10 | 10 to 50 | < 10 | 10 to 50
7 | Cc1ccc(NC(=O)c2ccc(CN3CCOCC3)c(C(F)(F)F)c2)cc1C#Cc1ccc2c(c1)ncn2-c1cnn(C)c1 [Compound I-48, N-(4-methyl-3-((1-(1-methyl-1H-pyrazol-4-yl)-1H-benzo[d]imidazol-5-yl)ethynyl)phenyl)-4-(morpholinomethyl)-3-(trifluoromethyl)benzamide] | < 10 | 50 to 100 | 10 to 50 | 50 to 100
8 | COCCn1cc(-n2cnc3cc(C#Cc4cc(C(=O)Nc5cc(C(F)(F)F)ccn5)ccc4C)ccc32)cn1 [Compound I-32, 3-((1-(1-(2-methoxyethyl)-1H-pyrazol-4-yl)-1H-benzo[d]imidazol-5-yl)ethynyl)-4-methyl-N-(4-(trifluoromethyl)pyridin-2-yl)benzamide] | < 10 | 10 to 50 | < 10 | 10 to 50
9 | Cc1ccc(C(=O)Nc2cc(C(F)(F)F)ccn2)cc1C#Cc1ccc2c(c1)ncn2-c1cn(C2CCN(C)CC2)cn1 [Compound I-34, 4-methyl-3-((1-(1-(1-methylpiperidin-4-yl)-1H-imidazol-4-yl)-1H-benzo[d]imidazol-5-yl)ethynyl)-N-(4-(trifluoromethyl)pyridin-2-yl)benzamide] | < 10 | 100 to 10000 | 10 to 50 | 100 to 10000
10 | Cc1ccc(C(=O)Nc2cc(C(F)(F)F)ccn2)cc1C#Cc1ccc2nc(N)[nH]c2c1 [Compound I-10, 3-((2-amino-1H-benzo[d]imidazol-6-yl)ethynyl)-4-methyl-N-(4-(trifluoromethyl)pyridin-2-yl)benzamide] | 10 to 50 | 100 to 10000 | 100 to 10000 | 100 to 10000
11 | Cc1ccc(C(=O)Nc2cccc(C3CC3)c2)cc1C#Cc1ccc2c(c1)ncn2-c1cnn(C)c1 [Compound I-28, N-(3-cyclopropylphenyl)-4-methyl-3-((1-(1-methyl-1H-pyrazol-4-yl)-1H-benzo[d]imidazol-5-yl)ethynyl)benzamide] | 10 to 50 | 50 to 100 | 10 to 50 | 50 to 100
12 | Cc1ccc(C(=O)Nc2cc(C(F)(F)F)ccn2)cc1C#Cc1ccc2ncn(C)c2c1 [Compound I-11, 4-methyl-3-((1-methyl-1H-benzo[d]imidazol-6-yl)ethynyl)-N-(4-(trifluoromethyl)pyridin-2-yl)benzamide] | 100 to 10000 | 100 to 10000 | 100 to 10000 | 100 to 10000
13 | Cc1ccc(C(=O)Nc2cc(C(F)(F)F)ccn2)cc1C#Cc1ccc2[nH]cnc2c1 [Compound I-2, 3-((1H-benzo[d]imidazol-5-yl)ethynyl)-4-methyl-N-(4-(trifluoromethyl)pyridin-2-yl)benzamide] | < 10 | 50 to 100 | 10 to 50 | 10 to 50
14 | Cc1ccc(C(=O)Nc2ccc(CN3CCCC3)c(C(F)(F)F)c2)cc1C#Cc1ccc2c(c1)ncn2C [Compound I-30, 4-methyl-3-((1-methyl-1H-benzo[d]imidazol-5-yl)ethynyl)-N-(4-(pyrrolidin-1-ylmethyl)-3-(trifluoromethyl)phenyl)benzamide] | 10 to 50 | 100 to 10000 | 50 to 100 | 50 to 100
15 | Cc1ccc(NC(=O)c2ccc(CN3CCN(C)CC3)c(C(F)(F)F)c2)cc1C#Cc1ccc2c(c1)ncn2-c1cnn(C)c1 [Compound I-46, N-(4-methyl-3-((1-(1-methyl-1H-pyrazol-4-yl)-1H-benzo[d]imidazol-5-yl)ethynyl)phenyl)-4-((4-methylpiperazin-1-yl)methyl)-3-(trifluoromethyl)benzamide] | 10 to 50 | 100 to 10000 | 50 to 100 | 100 to 10000
16 | Cc1ccc(C(=O)Nc2cc(C(F)(F)F)ccn2)cc1C#Cc1ccc2c(c1)ncn2-c1cnn(C)c1 [Compound I-17, 4-methyl-3-((1-(1-methyl-1H-pyrazol-4-yl)-1H-benzo[d]imidazol-5-yl)ethynyl)-N-(4-(trifluoromethyl)pyridin-2-yl)benzamide] | 10 to 50 | 50 to 100 | 10 to 50 | 10 to 50
17 | Cc1ccc(C(=O)Nc2cc(C(F)(F)F)ccn2)cc1C#Cc1ccc2c(c1)ncn2-c1cnn(CCO)c1 [Compound I-31, 3-((1-(1-(2-hydroxyethyl)-1H-pyrazol-4-yl)-1H-benzo[d]imidazol-5-yl)ethynyl)-4-methyl-N-(4-(trifluoromethyl)pyridin-2-yl)benzamide] | < 10 | 10 to 50 | < 10 | 10 to 50
18 | COCCn1cnc2cc(C#Cc3cc(C(=O)Nc4cc(C(F)(F)F)ccn4)ccc3C)ccc21 [Compound I-4, 3-((1-(2-methoxyethyl)-1H-benzo[d]imidazol-5-yl)ethynyl)-4-methyl-N-(4-(trifluoromethyl)pyridin-2-yl)benzamide] | < 10 | 100 to 10000 | 50 to 100 | 50 to 100
19 | Cn1cc(-n2cnc3cc(C#Cc4cccc(NC(=O)c5cc(C(F)(F)F)ccn5)c4)ccc32)cn1 [Compound I-49, N-(3-((1-(1-methyl-1H-pyrazol-4-yl)-1H-benzo[d]imidazol-5-yl)ethynyl)phenyl)-4-(trifluoromethyl)picolinamide] | < 10 | 100 to 10000 | 10 to 50 | 50 to 100
20 | Cc1ccc(C(=O)Nc2ccc(C#N)c(C(F)(F)F)c2)cc1C#Cc1ccc2c(c1)ncn2-c1ccn(C)n1 [Compound I-37, N-(4-cyano-3-(trifluoromethyl)phenyl)-4-methyl-3-((1-(1-methyl-1H-pyrazol-3-yl)-1H-benzo[d]imidazol-5-yl)ethynyl)benzamide] | < 10 | 10 to 50 | 10 to 50 | 50 to 100
21 | Cc1ccc(C(=O)Nc2ccc(CN3CCCC3)c(C(F)(F)F)c2)cc1C#Cc1ccc2c(c1)ncn2-c1cnn(C)c1 [Compound I-29, 4-methyl-3-((1-(1-methyl-1H-pyrazol-4-yl)-1H-benzo[d]imidazol-5-yl)ethynyl)-N-(4-(pyrrolidin-1-ylmethyl)-3-(trifluoromethyl)phenyl)benzamide] | 10 to 50 | 10 to 50 | 10 to 50 | 50 to 100
